Measurements: ChEMBL document CHEMBL1201862, “PubChem BioAssay data set” (2004)
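Test compounds were applied to cells in 96-well plates for 48 hours at 5 doses. GI50 = concentration required for 50% inhibition of growth.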 Calls of active or inactive are those of the source. No stated cut-off is given here; in the data, active = GI50 up to about 1.1 µM and inactive = higher.

Tests used:
Assay in all cases: inhibition of tumour cell growth, NCI panel, 48 h
NCI-H460 = tested on: NCI-H460
Hs-578T = tested on: Hs-578T
HT-29 = tested on: HT-29
786-0 = tested on: 786-0
SW-620 = tested on: SW-620
NCI-H23 = tested on: NCI-H23
EKVX = tested on: EKVX
BT-549 = tested on: BT-549
SF-295 = tested on: SF-295
SK-MEL-28 = tested on: SK-MEL-28
KM12 = tested on: KM12
SK-MEL-5 = tested on: SK-MEL-5
NCI-H522 = tested on: NCI-H522
UACC-62 = tested on: UACC-62
A549 = tested on: A549
RXF 393 = tested on: RXF 393
TK-10 = tested on: TK-10
LOX IMVI = tested on: LOX IMVI
ACHN = tested on: ACHN
PC-3 = tested on: PC-3

Structure (SMILES) | GI50 (NCI-H460) | GI50 (Hs-578T) | GI50 (HT-29) | GI50 (786-0) | GI50 (SW-620) | GI50 (NCI-H23) | GI50 (EKVX) | GI50 (BT-549) | GI50 (SF-295) | GI50 (SK-MEL-28) | GI50 (KM12) | GI50 (SK-MEL-5) | GI50 (NCI-H522) | GI50 (UACC-62) | GI50 (A549) | GI50 (RXF 393) | GI50 (TK-10) | GI50 (LOX IMVI) | GI50 (ACHN) | GI50 (PC-3)
CC(=O)Nc1nc(NC(C)=O)c2nc(CO)[nH]c2n1 | > 100 µM (inactive) | > 100 µM (inactive) | > 100 µM (inactive) | > 100 µM (inactive) | > 100 µM (inactive) | > 100 µM (inactive) | > 100 µM (inactive) | > 100 µM (inactive) | > 100 µM (inactive) | > 100 µM (inactive) | > 100 µM (inactive) | > 100 µM (inactive) | > 100 µM (inactive) | > 100 µM (inactive) | > 100 µM (inactive) | > 100 µM (inactive) | > 100 µM (inactive) | > 100 µM (inactive) | > 100 µM (inactive) | > 100 µM (inactive)
CC(C)/C=C1\CCC(CN(C)C)C1=O (stereo not given) | 18.9 µM (inactive) | 1.86 µM (inactive) | 2.12 µM (inactive) | 0.632 µM (active) | 0.656 µM (active) | 5.56 µM (inactive) | 7.1 µM (inactive) | 3.17 µM (inactive) | 16.6 µM (inactive) | 2.21 µM (inactive) | 1.22 µM (inactive) | 4.97 µM (inactive) | 0.082 µM (active) | 16.8 µM (inactive) | 8.57 µM (inactive) | 0.656 µM (active) | 2.09 µM (inactive) | 4.99 µM (inactive) | 5.82 µM (inactive) | 4.66 µM (inactive)
CCOc1ccc(Nc2nc(N)nc(N)c2N=O)cc1 | 32.9 µM (inactive) | 50.9 µM (inactive) | 30.4 µM (inactive) | > 100 µM (inactive) | 91.2 µM (inactive) | 59.7 µM (inactive) | 48.4 µM (inactive) | 45.6 µM (inactive) | > 100 µM (inactive) | 66.5 µM (inactive) | > 100 µM (inactive) | 49.5 µM (inactive) | 55.5 µM (inactive) | 44.1 µM (inactive) | > 100 µM (inactive) | 43.9 µM (inactive) | 34.3 µM (inactive) | 32.1 µM (inactive) | 42.1 µM (inactive) | 28.4 µM (inactive)
Cc1cccc(C)c1NC(=O)C(Cc1c[nH]c2ccccc12)NC(=O)OCc1ccccc1 (stereo not given) | 17.7 µM (inactive) | 33.1 µM (inactive) | 18.7 µM (inactive) | 20.1 µM (inactive) | 27.8 µM (inactive) | 24 µM (inactive) | 15.2 µM (inactive) | 24.8 µM (inactive) | 17 µM (inactive) | 18.9 µM (inactive) | 19.6 µM (inactive) | 13.5 µM (inactive) | 20.1 µM (inactive) | 16.6 µM (inactive) | 14.6 µM (inactive) | 13.9 µM (inactive) | 19.2 µM (inactive) | 19.5 µM (inactive) | 19.8 µM (inactive) | 12.3 µM (inactive)
Cc1ccc(C(=O)C#Cc2cn(C3CC(O)C(CO)O3)c(=O)[nH]c2=O)cc1 (stereo not given) | > 100 µM (inactive) | 95.1 µM (inactive) | > 100 µM (inactive) | > 100 µM (inactive) | 31 µM (inactive) | > 100 µM (inactive) | > 100 µM (inactive) | > 100 µM (inactive) | > 100 µM (inactive) | > 100 µM (inactive) | > 100 µM (inactive) | > 100 µM (inactive) | 11.5 µM (inactive) | > 100 µM (inactive) | > 100 µM (inactive) | > 100 µM (inactive) | > 100 µM (inactive) | 95.9 µM (inactive) | > 100 µM (inactive) | > 100 µM (inactive)
Cc1nn(C(=O)c2ccncc2)c2c1C(c1ccccc1)SC(=N)N2 (stereo not given) | > 10 µM (inactive) | > 10 µM (inactive) | > 10 µM (inactive) | > 10 µM (inactive) | > 10 µM (inactive) | > 10 µM (inactive) | > 10 µM (inactive) | > 10 µM (inactive) | > 10 µM (inactive) | > 10 µM (inactive) | > 10 µM (inactive) | > 10 µM (inactive) | > 10 µM (inactive) | > 10 µM (inactive) | > 10 µM (inactive) | > 10 µM (inactive) | > 10 µM (inactive) | > 10 µM (inactive) | > 10 µM (inactive) | > 10 µM (inactive)
O=C1/C(=C\c2ccc(-c3ccc(Cl)cc3Cl)o2)SC2NC(COc3ccc(Cl)cc3)=NN12 (stereo not given) | 38.5 µM (inactive) | 25.5 µM (inactive) | 79.4 µM (inactive) | 51.2 µM (inactive) | 60.7 µM (inactive) | 53.2 µM (inactive) | 32.4 µM (inactive) | 47 µM (inactive) | 45.3 µM (inactive) | > 100 µM (inactive) | 55.5 µM (inactive) | 36.7 µM (inactive) | 55 µM (inactive) | 34 µM (inactive) | 69.7 µM (inactive) | 27.5 µM (inactive) | 2.96 µM (inactive) | 52.1 µM (inactive) | 53.7 µM (inactive) | 64.7 µM (inactive)
CN1CCN(CCCCN2c3ccccc3Sc3ccc(C(=O)c4ccccc4)cc32)CC1 | 1.54 µM (inactive) | 1.58 µM (inactive) | 1.29 µM (inactive) | 1.58 µM (inactive) | 1.73 µM (inactive) | 1.85 µM (inactive) | 2.36 µM (inactive) | 1.65 µM (inactive) | 1.8 µM (inactive) | 1.49 µM (inactive) | 1.49 µM (inactive) | 1.54 µM (inactive) | 1.78 µM (inactive) | 1.26 µM (inactive) | 1.95 µM (inactive) | 0.923 µM (active) | 1.67 µM (inactive) | 1.46 µM (inactive) | 1.67 µM (inactive) | 1.5 µM (inactive)
O=C(O)CCC(NC(=O)c1ccc(Oc2nc3ccccc3nc2C(=O)O)cc1)C(=O)O (stereo not given) | > 100 µM (inactive) | > 100 µM (inactive) | > 100 µM (inactive) | > 100 µM (inactive) | > 100 µM (inactive) | > 100 µM (inactive) | > 100 µM (inactive) | 33.3 µM (inactive) | > 100 µM (inactive) | > 100 µM (inactive) | > 100 µM (inactive) | > 100 µM (inactive) | > 100 µM (inactive) | > 100 µM (inactive) | > 100 µM (inactive) | > 100 µM (inactive) | > 100 µM (inactive) | > 100 µM (inactive) | > 100 µM (inactive) | > 100 µM (inactive)
COc1ccc2c(c1)/C(=C\c1c(C)nc3sc(C)cn13)C(=O)N2 | 0.205 µM (active) | 1.22 µM (inactive) | 0.363 µM (active) | 2.32 µM (inactive) | 0.687 µM (active) | 2.31 µM (inactive) | 3.24 µM (inactive) | 1.66 µM (inactive) | 0.309 µM (active) | 54.6 µM (inactive) | 0.327 µM (active) | 0.206 µM (active) | 0.175 µM (active) | 0.274 µM (active) | 1.36 µM (inactive) | 1.64 µM (inactive) | 3.18 µM (inactive) | 1.87 µM (inactive) | 3.83 µM (inactive) | 0.385 µM (active)
CC(=O)O[C@H]1C[C@@H](O[C@H]2[C@@H](O)C[C@H](O[C@H]3[C@@H](O)C[C@H](O[C@H]4CC[C@@]5(C)[C@H](CC[C@@H]6[C@@H]5C[C@@H](O)[C@]5(C)[C@@H](C7=CC(=O)OC7)CC[C@]65O)C4)O[C@@H]3C)O[C@@H]2C)O[C@H](C)[C@H]1O.CC(=O)O[C@H]1[C@@H](O)C[C@@H](O[C@H]2[C@@H](O)C[C@H](O[C@H]3[C@@H](O)C[C@H](O[C@H]4CC[C@@]5(C)[C@H](CC[C@@H]6[C@@H]5C[C@@H](O)[C@]5(C)[C@@H](C7=CC(=O)OC7)CC[C@]65O)C4)O[C@@H]3C)O[C@@H]2C)O[C@@H]1C | 0.0148 µM (active) | 0.0251 µM (active) | 0.0278 µM (active) | 0.0223 µM (active) | 0.0435 µM (active) | 0.0114 µM (active) | 0.0175 µM (active) | 0.0425 µM (active) | 0.0299 µM (active) | 0.129 µM (active) | 0.0324 µM (active) | 0.0296 µM (active) | < 0.01 µM (active) | 0.0387 µM (active) | 0.0119 µM (active) | 0.0279 µM (active) | 0.0299 µM (active) | 0.0313 µM (active) | 0.0136 µM (active) | 0.0322 µM (active)
O=C(O)c1cc(=O)c2c(OCC(O)COc3cccc4oc(C(=O)O)cc(=O)c34)cccc2o1 | > 100 µM (inactive) | > 72.4 µM (inactive) | > 75.7 µM (inactive) | > 100 µM (inactive) | > 83 µM (inactive) | > 84.3 µM (inactive) | > 96.6 µM (inactive) | > 100 µM (inactive) | > 95.5 µM (inactive) | > 100 µM (inactive) | > 85.9 µM (inactive) | > 65.9 µM (inactive) | > 56.8 µM (inactive) | > 68.1 µM (inactive) | > 84.3 µM (inactive) | > 100 µM (inactive) | > 100 µM (inactive) | > 61.4 µM (inactive) | > 100 µM (inactive) | > 100 µM (inactive)
CCCCOc1ccc(S(=O)(=O)N/C(=N\O)Nc2ccc(Cl)cc2)cc1 | 15.4 µM (inactive) | 23.2 µM (inactive) | 17.2 µM (inactive) | 15.8 µM (inactive) | 17.5 µM (inactive) | 14.7 µM (inactive) | 15.8 µM (inactive) | 13.4 µM (inactive) | 16.9 µM (inactive) | 18.2 µM (inactive) | 16.6 µM (inactive) | 14.3 µM (inactive) | 14.7 µM (inactive) | 15.2 µM (inactive) | 16.1 µM (inactive) | 15.2 µM (inactive) | 15 µM (inactive) | 16 µM (inactive) | 14.9 µM (inactive) | 15.8 µM (inactive)
